Assay results taken from US11596639B2, “Substituted indole Mcl-1 inhibitors” (Vanderbilt University, priority 2016, dated 2023).

Experiments:
[1] = test system: H929 human cancer cell lines; test: Cellular viability / proliferation (Cell TiterGlo, 72 h); type: cell-based; conditions: Homo sapiens, NCI-H929, 72 h, read-out: GI50 on cellular proliferation of H929 human cancer cell lines, H929 cells, 72 h, Cell TiterGlo, 10% FBS
How it was run: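 Plating is at 1,000 cells/well in 10% FBS medium; after 24 h, compound is added as a 2-fold series starting at 50 μM with under 1% DMSO.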

Mcl-1 = Mcl-1 (Homo sapiens (Human), UniProt Q07820); test: TR-FRET binding assay, FITC-Bak peptide and MBP-tagged Mcl-1; conditions: read-out: Ki for Inhibition of Mcl-1 by TR-FRET assay
Protocol: Compounds are diluted in DMSO in a 16-point, semilog serial dilution scheme. […] The plate was mixed and incubated for 3 hours at room temperature. […] TR-FRET signal is plotted and IC50 and Ki values are calculated in the same manner as the fluorescence polarization anisotropy based competition assays.

Chain of Mcl-1 (Q07820 172-327): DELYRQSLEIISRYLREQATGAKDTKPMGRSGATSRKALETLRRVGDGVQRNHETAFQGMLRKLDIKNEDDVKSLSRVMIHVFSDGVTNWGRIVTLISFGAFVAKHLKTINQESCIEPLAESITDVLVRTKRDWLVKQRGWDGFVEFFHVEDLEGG

Row | Structure (SMILES) | GI50 [1] | Ki (Mcl-1)
1 | Cc1cc(OCCCc2c3n(c4c(-c5c(C)ncnc5C)c(Cl)ccc24)[C@H](C)CN(c2cc(OCCN4CCOCC4)cc4cc(C(=O)O)n(C)c24)C3=O)cc(C)c1Cl [Example 558, (R)-7-(7-chloro-10-(3-(4-chloro-3,5-dimethylphenoxy)propyl)-6-(4,6-dimethylpyrimidin-5-yl)-4-methyl-1-oxo-3,4-dihydropyrazino[1,2-a]indol-2(1H)-yl)-1-methyl-5-(2-morpholinoethoxy)-1H-indole-2-carboxylic acid] | 0.31 µM | < 0.0002 µM
2 | COCCOCCn1c(C(=O)O)cc2cc(C)cc(N3C[C@@H](C)n4c(c(CCCOc5cc(C)c(Cl)c(C)c5)c5ccc(Cl)c(-c6c(C)nn(C)c6C)c54)C3=O)c21 [Example 678, (R)-7-(7-chloro-10-(3-(4-chloro-3,5-dimethylphenoxy)propyl)-4-methyl-1-oxo-6-(1,3,5-trimethyl-1H-pyrazol-4-yl)-3,4-dihydropyrazino[1,2-a]indol-2(1H)-yl)-1-(2-(2-methoxyethoxy)ethyl)-5-methyl-1H-indole-2-carboxylic acid] | < 0.2 µM | 0.00022 µM
3 | Cc1cc(OCCCc2c3n(c4c(-c5c(C)nn(C)c5C)c(Cl)ccc24)[C@H](C)CN(c2cccc4cc(C(=O)O)n(Cc5cnn(C)n5)c24)C3=O)cc(C)c1Cl [Example 570, (R)-7-(7-chloro-10-(3-(4-chloro-3,5-dimethylphenoxy)propyl)-4-methyl-1-oxo-6-(1,3,5-trimethyl-1H-pyrazol-4-yl)-3,4-dihydropyrazino[1,2-a]indol-2(1H)-yl)-1-((2-methyl-2H-1,2,3-triazol-4-yl)methyl)-1H-indole-2-carboxylic acid] | 0.56 µM | < 0.0002 µM
4 | Cc1cc(OCCCc2c3n(c4c(-c5c(C)nn(C)c5C)c(Cl)ccc24)[C@H](C)CN(c2cn(C)c4ccc(-c5nc(C)n(C)n5)cc24)C3=O)cc(C)c1Cl [Example 643, (R)-7-Chloro-10-(3-(4-chloro-3,5-dimethylphenoxy)propyl)-2-(5-(1,5-dimethyl-1H-1,2,4-triazol-3-yl)-1-methyl-1H-indol-3-yl)-4-methyl-6-(1,3,5-trimethyl-1H-pyrazol-4-yl)-3,4-dihydropyrazino[1,2-a]indol-1(2H)-one] | 0.34 µM | 0.0013 µM
5 | Cc1cc(N2C[C@@H](C)n3c(c(CCCOc4cc(C)c(Cl)c(C)c4)c4ccc(Cl)c(-c5c(C)nn(C)c5C)c43)C2=O)c2c(c1)cc1n2CCOC1=O [Example 685, (R)-6-(7-chloro-10-(3-(4-chloro-3,5-dimethylphenoxy)propyl)-4-methyl-1-oxo-6-(1,3,5-trimethyl-1H-pyrazol-4-yl)-3,4-dihydropyrazino[1,2-a]indol-2(1H)-yl)-8-methyl-3,4-dihydro-1H-[1,4]oxazino[4,3-a]indol-1-one] | 1.4 µM | 0.0032 µM
6 | Cc1cc(OCCCc2c3n(c4c(-c5c(C)nn(C)c5C)c(Cl)ccc24)[C@H](C)CN(c2cc(COCc4cscn4)cc4cc(C(=O)O)n(C)c24)C3=O)cc(C)c1Cl [Example 688, (R)-7-(7-chloro-10-(3-(4-chloro-3,5-dimethylphenoxy)propyl)-4-methyl-1-oxo-6-(1,3,5-trimethyl-1H-pyrazol-4-yl)-3,4-dihydropyrazino[1,2-a]indol-2(1H)-yl)-1-methyl-5-((thiazol-4-ylmethoxy)methyl)-1H-indole-2-carboxylic acid] | 0.43 µM | 0.00022 µM
7 | CCc1ccnc(Cn2c(C(=O)O)cc3cc(C)cc(N4C[C@@H](C)n5c(c(CCCOc6cc(C)c(Cl)c(C)c6)c6ccc(Cl)c(-c7c(C)nn(C)c7C)c65)C4=O)c32)c1 [Example 627, (R)-7-(7-chloro-10-(3-(4-chloro-3,5-dimethylphenoxy)propyl)-4-methyl-1-oxo-6-(1,3,5-trimethyl-1H-pyrazol-4-yl)-3,4-dihydropyrazino[1,2-a]indol-2(1H)-yl)-1-((4-ethylpyridin-2-yl)methyl)-5-methyl-1H-indole-2-carboxylic acid] | < 0.2 µM | < 0.0002 µM
8 | COCCOCCn1c(C(=O)O)cc2cccc(N3C[C@@H](C)n4c(c(CCCOc5cc(C)c(Cl)c(C)c5)c5ccc(Cl)c(-c6c(C)nn(C)c6C)c54)C3=O)c21 [Example 634, (R)-7-(7-chloro-10-(3-(4-chloro-3,5-dimethylphenoxy)propyl)-4-methyl-1-oxo-6-(1,3,5-trimethyl-1H-pyrazol-4-yl)-3,4-dihydropyrazino[1,2-a]indol-2(1H)-yl)-1-(2-(2-methoxyethoxy)ethyl)-1H-indole-2-carboxylic acid] | 0.28 µM | < 0.0002 µM
9 | Cc1cc(OCCCc2c3n(c4c(-c5c(C)nn(C)c5C)c(Cl)ccc24)[C@H](C)CN(c2cn(C)c4ccc(-c5nc6ccccn6n5)cc24)C3=O)cc(C)c1Cl [Example 648, (R)-2-(5-([1,2,4]Triazolo[1,5-a]pyridin-2-yl)-1-methyl-1H-indol-3-yl)-7-chloro-10-(3-(4-chloro-3,5-dimethylphenoxy)propyl)-4-methyl-6-(1,3,5-trimethyl-1H-pyrazol-4-yl)-3,4-dihydropyrazino[1,2-a]indol-1(2H)-one] | 0.31 µM | 0.00023 µM
10 | COc1cc(N2C[C@@H](C)n3c(c(CCCOc4cc(C)c(Cl)c(C)c4)c4ccc(Cl)c(-c5c(C)nn(C)c5C)c43)C2=O)c2c(c1)c(C(=O)O)cn2Cc1ccccn1 [Example 605, (R)-7-(7-chloro-10-(3-(4-chloro-3,5-dimethylphenoxy)propyl)-4-methyl-1-oxo-6-(1,3,5-trimethyl-1H-pyrazol-4-yl)-3,4-dihydropyrazino[1,2-a]indol-2(1H)-yl)-5-methoxy-1-(pyridin-2-ylmethyl)-1H-indole-3-carboxylic acid] | 0.49 µM | 0.00045 µM
11 | Cc1cc(OCCCc2c3n(c4c(-c5c(C)nn(C)c5C)c(Cl)ccc24)[C@H](C)CN(c2cn(CC(=O)N4CCOCC4)c4ccc(-c5ncccn5)cc24)C3=O)cc(C)c1Cl [Example 531, (R)-7-Chloro-10-(3-(4-chloro-3,5-dimethylphenoxy)propyl)-4-methyl-2-(1-(2-morpholino-2-oxoethyl)-5-(pyrimidin-2-yl)-1H-indol-3-yl)-6-(1,3,5-trimethyl-1H-pyrazol-4-yl)-3,4-dihydropyrazino[1,2-a]indol-1(2H)-one] | 0.38 µM | 0.00048 µM
12 | COCCn1c(C(=O)O)cc2c(OC)ccc(N3C[C@@H](C)n4c(c(CCCOc5cc(C)c(Cl)c(C)c5)c5ccc(Cl)c(-c6c(C)nn(C)c6C)c54)C3=O)c21 [Example 587, (R)-7-(7-chloro-10-(3-(4-chloro-3,5-dimethylphenoxy)propyl)-4-methyl-1-oxo-6-(1,3,5-trimethyl-1H-pyrazol-4-yl)-3,4-dihydropyrazino[1,2-a]indol-2(1H)-yl)-4-methoxy-1-(2-methoxyethyl)-1H-indole-2-carboxylic acid] | < 0.2 µM | < 0.0002 µM
13 | Cc1cc(OCCCc2c3n(c4c(-c5c(C)cc(OCCN6CCCC6)cc5C)c(Cl)ccc24)[C@H](C)CN(c2cn(C)c4ccc(C(=O)O)cc24)C3=O)cc(C)c1Cl [Example 508, (R)-3-(7-chloro-10-(3-(4-chloro-3,5-dimethylphenoxy)propyl)-6-(2,6-dimethyl-4-(2-(pyrrolidin-1-yl)ethoxy)phenyl)-4-methyl-1-oxo-3,4-dihydropyrazino[1,2-a]indol-2(1H)-yl)-1-methyl-1H-indole-5-carboxylic acid] | 0.45 µM | 0.0024 µM
14 | Cc1cc(OCCCc2c3n(c4c(-c5c(C)nn(C)c5C)c(Cl)ccc24)[C@H](C)CN(c2cn(C)c4ccc(-n5nccn5)cc24)C3=O)cc(C)c1Cl [Example 662, (R)-7-Chloro-10-(3-(4-chloro-3,5-dimethylphenoxy)propyl)-4-methyl-2-(1-methyl-5-(2H-1,2,3-triazol-2-yl)-1H-indol-3-yl)-6-(1,3,5-trimethyl-1H-pyrazol-4-yl)-3,4-dihydropyrazino[1,2-a]indol-1(2H)-one] | 1.9 µM | 0.00093 µM
15 | COCCOCc1cc(N2C[C@@H](C)n3c(c(CCCOc4cc(C)c(Cl)c(C)c4)c4ccc(Cl)c(-c5c(C)nn(C)c5C)c43)C2=O)c2c(c1)cc(C(=O)O)n2C [Example 595, (R)-7-(7-chloro-10-(3-(4-chloro-3,5-dimethylphenoxy)propyl)-4-methyl-1-oxo-6-(1,3,5-trimethyl-1H-pyrazol-4-yl)-3,4-dihydropyrazino[1,2-a]indol-2(1H)-yl)-5-((2-methoxyethoxy)methyl)-1-methyl-1H-indole-2-carboxylic acid] | < 0.2 µM | < 0.0002 µM
16 | COCCOCCn1c(C(=O)O)cc2cc(C)cc(N3C[C@@H](C)n4c(c(CCCOc5cc(C)c(Cl)c(C)c5)c5ccc(Cl)c(-c6c(C)ncnc6C)c54)C3=O)c21 [Example 635, (R)-7-(7-chloro-10-(3-(4-chloro-3,5-dimethylphenoxy)propyl)-6-(4,6-dimethylpyrimidin-5-yl)-4-methyl-1-oxo-3,4-dihydropyrazino[1,2-a]indol-2(1H)-yl)-1-(2-(2-methoxyethoxy)ethyl)-5-methyl-1H-indole-2-carboxylic acid] | < 0.2 µM | < 0.0002 µM
17 | COCCOc1cc(N2C[C@@H](C)n3c(c(CCCOc4cc(C)c(Cl)c(C)c4)c4ccc(Cl)c(-c5c(C)nn(C)c5C)c43)C2=O)c2c(c1)c(C(=O)O)cn2Cc1cc(C)cc(C)n1 [Example 652, (R)-7-(7-chloro-10-(3-(4-chloro-3,5-dimethylphenoxy)propyl)-4-methyl-1-oxo-6-(1,3,5-trimethyl-1H-pyrazol-4-yl)-3,4-dihydropyrazino[1,2-a]indol-2(1H)-yl)-1-((4,6-dimethylpyridin-2-yl)methyl)-5-(2-methoxyethoxy)-1H-indole-3-carboxylic acid] | 0.37 µM | 0.00028 µM
